Entries after “also recorded” stand apart in the source; their conditions may differ.
Experiments:
HepG2 Cells [1] = assay: Total cell cholesterol in HepG2 hepatocytes; assay type: cell-based, human; conditions: 96 h, n = 3
Description: (§1) HepG2 cells were obtained from Dr. Barbara Knowles of the Wistar Institute, Pennsylvania. The HepG2 stock monolayers were maintained under the same conditions as the fibroblast monolayers, in a medium comprising MEM supplemented with 10% heat-inactivated FBS, and 1% (v/v) each of penicillin-streptomycin solution, non-essential and essential amino acids, and L-glutamine.
(§2) For experiments using HepG2 cells, confluent stock monolayers were washed once with Dulbecco's PBS, dissociated with 0.05-0.02% trypsin-EDTA followed by treatment with deoxyribonuclease I (0.1%), and were seeded (3.0×10^6) under identical conditions. The experimental MEM contained 25% (v/v) D2 O, 9% (v/v) delipidated FBS, and 1% (v/v) each of heat-inactivated FBS, penicillin-streptomycin, essential and non-essential amino acids, L-glutamine and 20 mM HEPES.
(§3) The fibroblast and hepatoblastoma cells were cultured in media containing 25% D2 O and 1% FBS in order to determine de novo cholesterol synthesis under conditions that permit receptor mediated cholesterol transport, according to the method of Easterman & Javitt et al., J. Lipid Res., 26: 950-954 (1985). Dish cultures of each cell type were prepared, and 26-aminocholesterol, dissolved in N,N-dimethylformamide (DMF, 9 ul per dish, 0.3% v/v) was added to each culture. The cells were then grown to confluence (96 hours, day 5). […] Duplicate or triplicate dishes containing 9 ul of DMF, but without 26-aminocholesterol, were used as controls.
(§4) After 96 hours of incubation, medium was removed from the cell cultures, and the cells were washed with Dulbecco's PBS and were harvested with 0.05% trypsin - 0.02% EDTA. The protease was deactivated with an equivolume aliquot of soybean trypsin inhibitor, and the resulting cell suspension was centrifuged for 5 minutes at 500xg. An internal standard of 5B-cholestan-3B-ol was added to the pellets prior to extraction with an 8:4:3 chloroform:methanol:water Folch mixture, as described in Folch et al., J. Biol. Chem., 266: 497-509 (1957). An aliquot of the extract was blown to dryness under nitrogen and silylated with 2:1:1 MSTFA (a sylated reagent supplied by Pierce Co.): toluene:-pyridine. Free cholesterol was determined by gas-liquid chromatography (GLC) on a Perkin-Elmer capillary gas-liquid chromatography model 8320 fitted with a 20 m DE-1 methylsilicon glass column (Supelco). The remaining extract was dried and saponified with 2% ethanolic KOH at 80° C. for one hour. The […] was then re-extracted and total cholesterol was measured by GLC after silylation. Cholesterol ester was calculated as the difference between the total and free cholesterol determinations. Newly synthesized cholesterol was determined by GLC-MS isotope mass ratios, using a Hewlett-Packard GC-MS spectrometer model 5890 fitted with DB-1 methyl silicon 0.18 i.d. 20 m glass column (Supelco), according to the method of J. Lipid. Res., 26: 950-954, supra.
For purposes of comparison, ^125 I-LDL and cholesterol assays were also conducted in cultures prepared according to the above methods, but incubated with 26-hydroxycholesterol in one set of experiments and with the sterol 26-thiacholesterol in another set of experiments. These sterols were obtained according to known methods, similar to those described above for 26-aminocholesterol.

HepG2 Cells [2] = assay: De novo cholesterol synthesis in HepG2 hepatocytes (D2O); assay type: cell-based, human; conditions: for % DE NOVO (De Novo Cholesterol Synthesis): HepG2, 96 h, n = 3, untreated 55.8; for de novo cholesterol synthesis (in words): HepG2 / human hepatocytes
Description: as §1, §2, §3
as §4, with “supra. […]” for “supra.”

## C[C@@H](CN)CCC[C@@H](C)[C@H]1CC[C@H]2[C@@H]3CC=C4C[C@@H](O)CC[C@]4(C)[C@H]3CC[C@]12C [26-NH2, 26-aminocholesterol]
HepG2 Cells [1]; 0.156 uM
  TOTAL CHOLESTEROL: 30.6 +/- 3.7 ug cholesterol per mg cell pro
HepG2 Cells [1]; 0.312 uM
  TOTAL CHOLESTEROL: 25.0 +/- 0.6 ug cholesterol per mg cell pro
HepG2 Cells [1]; 0.625 uM
  TOTAL CHOLESTEROL: 28.8 +/- 1.8 ug cholesterol per mg cell pro
HepG2 Cells [2]; 0.156 uM
  % DE NOVO (De Novo Cholesterol Synthesis): 38.3%
HepG2 Cells [2]; 0.312 uM
  % DE NOVO (De Novo Cholesterol Synthesis): 45.1%
HepG2 Cells [2]; 0.625 uM
  % DE NOVO (De Novo Cholesterol Synthesis): 42.0%
HepG2 Cells [2]
  de novo cholesterol synthesis (in words): do not provide a similar reduction; also recorded: no impact

## CC(CO)CCC[C@@H](C)[C@H]1CC[C@H]2[C@@H]3CC=C4C[C@@H](O)CC[C@]4(C)[C@H]3CC[C@]12C (some centres unmarked) [26-OH, 26-hydroxycholesterol]
HepG2 Cells [1]; 0.625 uM
  TOTAL CHOLESTEROL: 24.7 +/- 2.8 ug cholesterol per mg cell pro
HepG2 Cells [2]; 0.625 uM
  % DE NOVO (De Novo Cholesterol Synthesis): 57.1%
HepG2 Cells [2]
  de novo cholesterol synthesis (in words): do not provide a similar reduction

## CC(CS)CCC[C@@H](C)[C@H]1CC[C@H]2[C@@H]3CC=C4C[C@@H](O)CC[C@]4(C)[C@H]3CC[C@]12C (some centres unmarked) [26-SH]
HepG2 Cells [1]; 5.0 uM
  TOTAL CHOLESTEROL: 25.5 +/- 4.3 ug cholesterol per mg cell pro
HepG2 Cells [1]; 10.0 uM
  TOTAL CHOLESTEROL: 27.4 +/- 4.0 ug cholesterol per mg cell pro
HepG2 Cells [1]; 20.0 uM
  TOTAL CHOLESTEROL: 23.2 +/- 1.2 ug cholesterol per mg cell pro
HepG2 Cells [2]; 5.0 uM
  % DE NOVO (De Novo Cholesterol Synthesis): 49.7%
HepG2 Cells [2]; 10.0 uM
  % DE NOVO (De Novo Cholesterol Synthesis): 47.9%
HepG2 Cells [2]; 20.0 uM
  % DE NOVO (De Novo Cholesterol Synthesis): 41.9%
HepG2 Cells [2]
  de novo cholesterol synthesis (in words): no impact

— patent US4939134A, “26-aminocholesterol and derivatives and analogs thereof in the regulation of cholesterol accumulation in body tissue” (New York University, priority 1988, dated 1990)
